Source: US11332477B2, “Nitrogen containing heterocycle substituted benzoxazine oxazolidinone compound and preparation method and use thereof” (INSTITUTE OF MATERIA MEDICA, CHINESE ACADEMY OF MEDICAL …, priority 2017, dated 2022)
Converted amounts (≈) assume the structure as drawn. Like-named read-outs stand apart in the source and are kept apart here.

Legend:
[1] = tested on: Vero cells; assay: Cytotoxicity test (MTT); type: cell-based; settings: Chlorocebus sabaeus
[2] = tested on: mitochondrial protein synthesis; assay: Activity of inhibiting mitochondrial protein synthesis; type: biochemical
Method: The experimental steps were carried out according to the literature (Antimicrobial Agents and Chemotherapy, 2006, 50 (6), 2042-2049).

[3] = tested on: Mycobacterium tuberculosis H37Rv; assay: Anti-tuberculosis activity test in vitro (Microplate Alamar Blue Assay, MABA); type: cell-based
[4] = Vero cells, MTT, 48 hours of incubation, highest concentration 64 μg/mL, read-out: IC50
[5] = mitochondrial protein synthesis inhibition, Table 3
[6] = M. tuberculosis H37Rv, MABA, 7H9 medium, method says MIC90 was calculated, read-out: MIC

SMILES	melting point	IC50 [1, 4]	MIC [3, 6]	other results
O=C(NC[C@@H]1OC(=O)N2c3cc(F)c(N4C5CCC4CSC5)cc3OC[C@@H]12)c1cnccn1	> 250 °C	–	–	–
CNC[C@@H]1OC(=O)N2c3cc(F)c(N4CCSCC4)cc3OC[C@@H]12 [Compound 2, (3S,3aS)-8-Fluoro-3-((methylamino)methyl)-7-thiomorpholino-3a,4-dihydro-1H,3H-benzo[b]oxazolo[3,4-d][1,4]oxazin-1-one]	155 to 156 °C	46.5 µg/mL (≈ 132 µM)	–	–
CS(=O)(=O)NC[C@@H]1OC(=O)N2c3cc(F)c(N4CCSCC4)cc3OC[C@@H]12 [Compound 3, N-(((3S,3aS)-8-Fluoro-1-oxo-7-thiomorpholino-3a,4-dihydro-1H,3H-benzo[b]oxazolo[3,4-d][1,4]oxazin-3-yl)methyl)methanesulfonamide]	234 to 235 °C	> 64 µg/mL	–	–
CC(=O)NC[C@@H]1OC(=O)N2c3cc(F)c(N4CCSCC4)cc3OC[C@@H]12 [Compound 4, N-(((3S,3aS)-8-Fluoro-1-oxo-7-thiomorpholino-3a,4-dihydro-1H,3H-benzo[b]oxazolo[3,4-d][1,4]oxazin-3-yl)methyl)acetamide]	–	> 64 µg/mL	0.044 µg/mL (≈ 0.115 µM)	IC50 [2, 5]: 99.39 µg/mL
NC[C@@H]1OC(=O)N2c3cc(F)c(N4[C@@H]5CC[C@H]4CSC5)cc3OC[C@@H]12 [Compound 13, (3S,3aS)-3-(Aminomethyl)-7-((1R,5S)-3-thia-8-azabicyclo[3.2.1]octan-8-yl)-8-fluoro-3a,4-dihydro-1H,3H-benzo[b]oxazolo[3,4-d][1,4]oxazin-1-one]	168 to 169 °C	–	–	MIC ([3]; H37RV): 0.609 µg/mL (≈ 1.67 µM)
CC(=O)NC[C@@H]1OC(=O)N2c3cc(F)c(N4[C@@H]5CC[C@H]4CSC5)cc3OC[C@@H]12 [Compound 14, N-(((3S,3aS)-7-((1R,5S)-3-thia-8-azabicyclo[3.2.1]octan-8-yl)-8-fluoro-1-oxo-3a,4-dihydro-1H,3H-benzo[b]oxazolo[3,4-d][1,4]oxazin-3-yl)methyl)acetamide]	235 to 236 °C	–	–	IC50 ([1]; Vero, 48 h): 58.5 µg/mL (≈ 144 µM); MIC ([3]; H37RV): 0.918 µg/mL (≈ 2.25 µM)
CC(C)C(=O)NC[C@@H]1OC(=O)N2c3cc(F)c(N4C5CCC4CSC5)cc3OC[C@@H]12 [Compound 15]	164 to 165 °C	–	–	IC50 ([1]; Vero, 48 h): > 64 µg/mL
O=C(NC[C@@H]1OC(=O)N2c3cc(F)c(N4[C@@H]5CC[C@H]4CSC5)cc3OC[C@@H]12)C1CC1 [Compound 16, N-(((3S,3aS)-7-((1R,5S)-3-thia-8-azabicyclo[3.2.1]octan-8-yl)-8-fluoro-1-oxo-3a,4-dihydro-1H,3H-benzo[b]oxazolo[3,4-d][1,4]oxazin-3-yl)methyl)cyclopropanecarboxamide]	169 to 171 °C	–	–	IC50 ([1]; Vero, 48 h): > 64 µg/mL; MIC ([3]; H37RV): 0.976 µg/mL (≈ 2.25 µM)
O=C(NC[C@@H]1OC(=O)N2c3cc(F)c(N4[C@@H]5CC[C@H]4CSC5)cc3OC[C@@H]12)C1CCC1 [Compound 17, N-(((3S,3aS)-7-((1R,5S)-3-thia-8-azabicyclo[3.2.1]octan-8-yl)-8-fluoro-1-oxo-3a,4-dihydro-1H,3H-benzo[b]oxazolo[3,4-d][1,4]oxazin-3-yl)methyl)cyclobutanecarboxamide]	195 to 196 °C	–	–	IC50 ([1]; Vero, 48 h): 34.7 µg/mL (≈ 77.5 µM); MIC ([3]; H37RV): 0.974 µg/mL (≈ 2.18 µM)
COC(=O)NC[C@@H]1OC(=O)N2c3cc(F)c(N4[C@@H]5CC[C@H]4CSC5)cc3OC[C@@H]12 [Compound 18, Methyl (((3S,3aS)-7-((1R,5S)-3-thia-8-azabicyclo[3.2.1]octan-8-yl)-8-fluoro-1-oxo-3a,4-dihydro-1H,3H-benzo[b]oxazolo[3,4-d][1,4]oxazin-3-yl)methyl)carbamate]	149 to 151 °C	–	–	IC50 ([1]; Vero, 48 h): > 64 µg/mL
O=C1O[C@@H](CNc2ccon2)[C@@H]2COc3cc(N4[C@@H]5CC[C@H]4CSC5)c(F)cc3N12 [Compound 19, (3S,3aS)-7-((1R,5S)-3-thia-8-azabicyclo[3.2.1]octan-8-yl)-8-fluoro-3-((isoxazol-3-ylamino)methyl)-3a,4-dihydro-1H,3H-benzo[b]oxazolo[3,4-d][1,4]oxazin-1-one]	180 to 182 °C	–	–	IC50 ([1]; Vero, 48 h): > 64 µg/mL
O=C(NC[C@@H]1OC(=O)N2c3cc(F)c(N4[C@@H]5CC[C@H]4CSC5)cc3OC[C@@H]12)c1ccncc1 [Compound 20, N-(((3S,3aS)-7-((1R,5S)-3-thia-8-azabicyclo[3.2.1]octan-8-yl)-8-fluoro-1-oxo-3a,4-dihydro-1H,3H-benzo[b]oxazolo[3,4-d][1,4]oxazin-3-yl)methyl)isonicotinamide]	149 to 150 °C	–	–	IC50 ([1]; Vero, 48 h): > 64 µg/mL
O=C1O[C@@H](Cn2ccnn2)[C@@H]2COc3cc(N4[C@@H]5CC[C@H]4CSC5)c(F)cc3N12 [Compound 22, (3S,3aS)-3-((1H-1,2,3-Triazol-1-yl)methyl)-7-((1R,5S)-3-thia-8-azabicyclo[3.2.1]octan-8-yl)-8-fluoro-3a,4-dihydro-1H,3H-benzo[b]oxazolo[3,4-d][1,4]oxazin-1-one]	225 to 227 °C	–	–	IC50 ([1]; Vero, 48 h): > 64 µg/mL
CC(=O)NC[C@@H]1OC(=O)N2c3cc(F)c(N4CC5(COC5)C4)cc3OC[C@@H]12 [Compound 24, N-(((3S,3aS)-8-Fluoro-1-oxo-7-(2-oxa-6-azaspiro[3.3]heptan-6-yl)-3a,4-dihydro-1H,3H-benzo[b]oxazolo[3,4-d][1,4]oxazin-3-yl)methyl)acetamide]	105 to 107 °C	> 64 µg/mL	–	–
O=C(NC[C@@H]1OC(=O)N2c3cc(F)c(N4CC5(COC5)C4)cc3OC[C@@H]12)C1CC1 [Compound 25, N-(((3S,3aS)-8-Fluoro-1-oxo-7-(2-oxa-6-azaspiro[3.3]heptan-6-yl)-3a,4-dihydro-1H,3H-benzo[b]oxazolo[3,4-d][1,4]oxazin-3-yl)methyl)cyclopropanecarboxamide]	181 to 183 °C	> 64 µg/mL	–	–
O=C(NC[C@@H]1OC(=O)N2c3cc(F)c(N4CC5(COC5)C4)cc3OC[C@@H]12)C1CCC1 [Compound 26, N-(((3S,3aS)-8-Fluoro-1-oxo-7-(2-oxa-6-azaspiro[3.3]heptan-6-yl)-3a,4-dihydro-1H,3H-benzo[b]oxazolo[3,4-d][1,4]oxazin-3-yl)methyl)cyclobutanecarboxamide]	118 to 120 °C	> 64 µg/mL	–	–
O=C1O[C@@H](Cn2ccnn2)[C@@H]2COc3cc(N4CC5(COC5)C4)c(F)cc3N12 [Compound 27, (3S,3aS)-3-((1H-1,2,3-Triazol-1-yl)methyl)-8-fluoro-7-(2-oxa-6-azaspiro[3.3]heptan-6-y 1)-3a,4-dihydro-1H,3H-benzo[b]oxazolo[3,4-d][1,4]oxazin-1-one]	219 to 221 °C	> 64 µg/mL	–	–
CC(=O)NC[C@H]1OC(=O)N2c3cc(F)c(N4CCSCC4)cc3OC[C@H]12 [Compound 28, N-(((3R,3aR)-8-Fluoro-1-oxo-7-thiomorpholino-3a,4-dihydro-1H,3H-benzo[b]oxazolo[3,4-d][1,4]oxazin-3-yl)methyl)acetamide]	–	> 64 µg/mL	0.232 µg/mL (≈ 0.608 µM)	IC50 [2, 5]: >100 µg/mL
COC(=O)NC[C@H]1OC(=O)N2c3cc(F)c(N4CCSCC4)cc3OC[C@H]12 [Compound 30, Methyl (((3R,3aR)-8-fluoro-1-oxo-7-thiomorpholino-3a,4-dihydro-1H,3H-benzo[b]oxazolo[3,4-d][l, 4]oxazin-3-yl)methyl)carbamate]	158 to 160 °C	> 64 µg/mL	0.208 µg/mL (≈ 0.523 µM)	–
CC(=O)NC[C@@H]1OC(=O)N2c3cc(F)c(N4CCC(F)(F)CC4)cc3OC[C@@H]12 [Compound 32, N-(((3S,3aS)-7-(4,4-Difluoropiperidin-1-yl)-8-fluoro-1-oxo-3a,4-dihydro-1H,3H-benzo[b]oxazolo[3,4-d][1,4]oxazin-3-yl)methyl)acetamide]	230 to 232 °C	> 64 µg/mL	0.908 µg/mL (≈ 2.27 µM)	–
O=C(NC[C@@H]1OC(=O)N2c3cc(F)c(N4CCSCC4)cc3OC[C@@H]12)C(F)F [Compound 33, 2,2-Difluoro-N-(((3S,3aS)-8-fluoro-1-oxo-7-thiomorpholino-3a,4-dihydro-1H,3H-benzo [b]oxazolo[3,4-d][1,4]oxazin-3-yl)methyl)acetamide]	200 to 202 °C	61.6 µg/mL (≈ 148 µM)	0.1 µg/mL (≈ 0.24 µM)	–
O=C(NC[C@@H]1OC(=O)N2c3cc(F)c(N4CC[S+]([O-])CC4)cc3OC[C@@H]12)C(F)F [Compound 34, 2,2-Difluoro-N-(((3S,3aS)-8-fluoro-7-(1-oxidothiomorpholino)-1-oxo-3a,4-dihydro-1H, 3H-benzo[b]oxazolo[3,4-d][1,4]oxazin-3-yl)methyl)acetamide]	190 to 192 °C	> 64 µg/mL	0.492 µg/mL (≈ 1.14 µM)	–
CC(=O)NC[C@@H]1OC(=O)N2c3cc(F)c(N4CCS(=O)(=O)CC4)cc3OC[C@@H]12 [Compound 35, N-(((3S,3aS)-7-(1,1-dioxidothiomorpholino)-8-fluoro-1-oxo-3a,4-dihydro-1H,3H-benzo [b]oxazolo[3,4-d][1,4]oxazin-3-yl)methyl)acetamide]	226 to 228 °C	> 64 µg/mL	0.48 µg/mL (≈ 1.16 µM)	–
O=C1O[C@@H](CNC2COC2)[C@@H]2COc3cc(N4CCSCC4)c(F)cc3N12 [Compound 36, (3S,3aS)-8-Fluoro-3-((oxetan-3-ylamino)methyl)-7-thiomorpholino-3a,4-dihydro-1H,3H-benzo[b]oxazolo[3,4-d][1,4]oxazin-1-one]	162 to 164 °C	> 64 µg/mL	0.237 µg/mL (≈ 0.599 µM)	–
CC(=O)NC[C@@H]1OC(=O)N2c3ccc(N4CCOCC4)cc3OC[C@@H]12 [Compound VII, reference compound]	–	–	1.55 µg/mL (≈ 4.45 µM)	IC50 [2, 5]: 35.82 µg/mL; IC50 ([2]; read-out: IC50 value of mitochondrial protein synthesis inhibition): 35.8 µM
CC(=O)NC[C@H]1CN(c2ccc(N3CCOCC3)c(F)c2)C(=O)O1 [Linezolid, reference compound]	–	–	0.294 µg/mL (≈ 0.871 µM)	IC50 [2, 5]: 8.71 µg/mL
CC(=O)NC[C@H]1CN(c2ccc(N3CCSCC3)c(F)c2)C(=O)O1 [Sutezolid, reference compound]	–	–	0.078 µg/mL (≈ 0.221 µM)	IC50 [2, 5]: 7.98 µg/mL
